Assay results as given in article PMC8776995 (Frontiers in Chemistry, 2022).
Values joined by “and” are separate entries in the source; they are usually repeats but may differ in a detail not shown here. Equal entries are not always repeated.

Experiments:
PC-9 cells = assay: CCK-8 antiproliferation assay, PC-9; settings: for Inhibitory efficacy: single repeats (Repeat 1-3), given as fraction
PC-9 xenograft = assay: In vivo antitumor activity, PC-9 xenograft in NSG mice; parameters: species or system mouse
Method: The mouse body mass was recorded as well.

A549 cells = assay: CCK-8 antiproliferation assay, A549; settings: given as fraction, Repeat 1-3; for Inhibitory efficacy: A549 cells
Method: The compounds were dissolved in DMSO to make a 20 μM stock solution and diluted to the concentration of working solutions with complete growth medium before administration.
Cells were seeded in 96-well plates: 3,000–5,000 cells/well in 100 ul. One day after seeding, the test compounds at concentration between 1.0 and 16.0 μ M or 0.1% DMSO (as control) were added to cells in triplicate. 48 h later, CCK-8 was added and incubated the plate for 1–4 h in the incubator. The absorbance at 450 nm were measured using a microplate reader (Bio-Tek).

H460 cells = assay: CCK-8 antiproliferation assay, H460; settings: for Inhibitory efficacy: H460 cells
H1975 cells = assay: CCK-8 antiproliferation assay, H1975; settings: for Inhibitory efficacy: H1975 cells
[1] = 2uM, given as fraction, Repeat 1-3
[2] = 4uM, given as fraction, Repeat 1-3
[3] = 8uM, given as fraction, Repeat 1-3
[4] = 16uM, given as fraction, Repeat 1-3

Compound: C#Cc1cccc(Nc2ncnc3cc(OCCOC)c(OCCOC)cc23)c1 [Erlotinib, reference compound]
- IC50 (PC-9 cells; Homo sapiens, PC-9, 48 h, read-out: IC50 (μM) PC-9): 0.21 ± 0.07 µM
- inhibition at 1 µM (PC-9 cells; Homo sapiens, PC-9, read-out: Inhibitory efficacy, PC-9, 1uM, single repeats (Repeat 1-3), given as fraction): 60.2%
- inhibition at 2 µM (PC-9 cells; Homo sapiens, PC-9, read-out: Inhibitory efficacy, PC-9, 2uM, single repeats (Repeat 1-3), given as fraction): 62.2%
- inhibition at 4 µM (PC-9 cells; Homo sapiens, PC-9, read-out: Inhibitory efficacy, PC-9, 4uM, single repeats (Repeat 1-3), given as fraction): 73.2%
- inhibition at 8 µM (PC-9 cells; Homo sapiens, PC-9, read-out: Inhibitory efficacy, PC-9, 8uM, single repeats (Repeat 1-3), given as fraction): 72.2%
- inhibition at 16 µM (PC-9 cells; Homo sapiens, PC-9, read-out: Inhibitory efficacy, PC-9, 16uM, single repeats (Repeat 1-3), given as fraction): 77.6%
- Inhibitory efficacy (PC-9 cells; PC-9, 1uM, 1 µM): 0.6098 and 0.6255
- Inhibitory efficacy (PC-9 cells; PC-9, 2uM, 2 µM): 0.6294 and 0.6255
- Inhibitory efficacy (PC-9 cells; PC-9, 4uM, 4 µM): 0.6922 and 0.7284
- Inhibitory efficacy (PC-9 cells; PC-9, 8uM, 8 µM): 0.7167 and 0.7137
- Inhibitory efficacy (PC-9 cells; PC-9, 16uM, 16 µM): 0.7578 and 0.7647
- tumor volume mean (PC-9 xenograft; Day13, group mean): 75.6221 mm3
- tumor length (PC-9 xenograft; Day13, individual animals): 5.32 mm and 6.15 mm and 5.63 mm and 5.6 mm and 6.4 mm and 5.64 mm and 7.11 mm
- tumor volume (PC-9 xenograft; Day13, individual animals): 68.645 mm3 and 111.069 mm3 and 86.3969 mm3 and 32.368 mm3 and 70.688 mm3 and 54.5952 mm3 and 105.592 mm3
- tumor width (PC-9 xenograft; Day13, individual animals): 5.08 mm and 6.01 mm and 5.54 mm and 3.4 mm and 4.7 mm and 4.4 mm and 5.45 mm
- tumor volume mean (PC-9 xenograft; Day15, group mean): 46.9389 mm3
- tumor length (PC-9 xenograft; Day15, individual animals): 5.43 mm and 5.76 mm and 4.04 mm and 4.28 mm and 5.96 mm and 6.09 mm and 6.46 mm
- tumor volume (PC-9 xenograft; Day15, individual animals): 23.7877 mm3 and 44.4813 mm3 and 30.5668 mm3 and 38.11 mm3 and 66.1086 mm3 and 70.1568 mm3 and 55.3609 mm3
- tumor width (PC-9 xenograft; Day15, individual animals): 2.96 mm and 3.93 mm and 3.89 mm and 4.22 mm and 4.71 mm and 4.8 mm and 4.14 mm
- tumor volume mean (PC-9 xenograft; Day17, group mean): 35.7998 mm3
- tumor length (PC-9 xenograft; Day17, individual animals): 4.34 mm and 4.5 mm and 4.68 mm and 3.6 mm and 3.5 mm and 5.64 mm and 5.39 mm
- tumor volume (PC-9 xenograft; Day17, individual animals): 40.4974 mm3 and 44.957 mm3 and 28.665 mm3 and 15.138 mm3 and 14.7175 mm3 and 67.7082 mm3 and 38.9158 mm3
- tumor width (PC-9 xenograft; Day17, individual animals): 4.32 mm and 4.47 mm and 3.5 mm and 2.9 mm and 4.9 mm and 3.8 mm
- tumor volume mean (PC-9 xenograft; Day19, group mean): 14.0038 mm3
- tumor length (PC-9 xenograft; Day19, individual animals): 2.66 mm and 3.12 mm and 2.47 mm and 0 mm and 3.83 mm and 4.36 mm and 4.91 mm
- tumor volume (PC-9 xenograft; Day19, individual animals): 8.246 mm3 and 6.24 mm3 and 5.446 mm3 and 0 mm3 and 21.1079 mm3 and 22.4629 mm3 and 34.5234 mm3
- tumor width (PC-9 xenograft; Day19, individual animals): 2.49 mm and 2 mm and 2.1 mm and 0 mm and 3.32 mm and 3.21 mm and 3.75 mm
- Inhibitory efficacy (A549 cells; 1uM): 0.1312 and 0.1478
- Inhibitory efficacy (A549 cells; 2uM): 0.2342 and 0.2336
- Inhibitory efficacy (A549 cells; 4uM): 0.4482 and 0.3384
- Inhibitory efficacy (A549 cells; 8uM): 0.471 and 0.4975
- Inhibitory efficacy (A549 cells; 16uM): 0.5265 and 0.5389
- inhibition at 1 µM (A549 cells; Homo sapiens, A549, read-out: Inhibitory efficacy, A549 cells, 1uM): 22.3%
- inhibition at 2 µM (A549 cells; Homo sapiens, A549, read-out: Inhibitory efficacy, A549 cells, 2uM): 25.5%
- inhibition at 4 µM (A549 cells; Homo sapiens, A549, read-out: Inhibitory efficacy, A549 cells, 4uM): 39%
- inhibition at 8 µM (A549 cells; Homo sapiens, A549, read-out: Inhibitory efficacy, A549 cells, 8uM): 47.8%
- inhibition at 16 µM (A549 cells; Homo sapiens, A549, read-out: Inhibitory efficacy, A549 cells, 16uM): 56%
- Inhibitory efficacy (H460 cells; 1uM, given as fraction, Repeat 1-3): 0.09689 and 0.1206
- Inhibitory efficacy (H460 cells; [1]): 0.2063 and 0.1995
- Inhibitory efficacy (H460 cells; [2]): 0.3477 and 0.3746
- Inhibitory efficacy (H460 cells; [3]): 0.4407 and 0.5067
- Inhibitory efficacy (H460 cells; [4]): 0.4651 and 0.4816
- IC50 (H460 cells; Homo sapiens, NCI-H460, 48 h, read-out: IC50 (μM) H460): 13.3 ± 1.5 µM
- inhibition at 1 µM (H460 cells; Homo sapiens, NCI-H460, read-out: Inhibitory efficacy, H460 cells, 1uM, given as fraction, Repeat 1-3): 6.64%
- inhibition at 2 µM (H460 cells; Homo sapiens, NCI-H460, read-out: Inhibitory efficacy, H460 cells, 2uM, given as fraction, Repeat 1-3): 14.3%
- inhibition at 4 µM (H460 cells; Homo sapiens, NCI-H460, read-out: Inhibitory efficacy, H460 cells, 4uM, given as fraction, Repeat 1-3): 30%
- inhibition at 8 µM (H460 cells; Homo sapiens, NCI-H460, read-out: Inhibitory efficacy, H460 cells, 8uM, given as fraction, Repeat 1-3): 47.8%
- inhibition at 16 µM (H460 cells; Homo sapiens, NCI-H460, read-out: Inhibitory efficacy, H460 cells, 16uM, given as fraction, Repeat 1-3): 47.2%
- Inhibitory efficacy (H1975 cells; [1]): 0.1989 and 0.1819
- Inhibitory efficacy (H1975 cells; [2]): 0.3103 and 0.3631
- Inhibitory efficacy (H1975 cells; [3]): 0.4556 and 0.4424
- Inhibitory efficacy (H1975 cells; [4]): 0.4821 and 0.5651
- IC50 (H1975 cells; Homo sapiens, NCI-H1975, 48 h, read-out: IC50 (μM) H1975): 12.7 ± 2.76 µM
- inhibition at 2 µM (H1975 cells; Homo sapiens, NCI-H1975, read-out: Inhibitory efficacy, H1975 cells, 2uM, given as fraction, Repeat 1-3): 20.1%
- inhibition at 4 µM (H1975 cells; Homo sapiens, NCI-H1975, read-out: Inhibitory efficacy, H1975 cells, 4uM, given as fraction, Repeat 1-3): 30.1%
- inhibition at 8 µM (H1975 cells; Homo sapiens, NCI-H1975, read-out: Inhibitory efficacy, H1975 cells, 8uM, given as fraction, Repeat 1-3): 42.2%
- inhibition at 16 µM (H1975 cells; Homo sapiens, NCI-H1975, read-out: Inhibitory efficacy, H1975 cells, 16uM, given as fraction, Repeat 1-3): 55.9%

Compound: COCCOc1cc2ncnc(Nc3cccc(-c4cn(Cc5cccc(OC)c5)nn4)c3)c2cc1OCCOC [e5]
- melting point: 85 to 88 °C
